US20020151487A1, “Method and reagents for epithelial barrier formation and treatment of malignant and benign skin disorders by modulating the notch pathway” (Loyola University Chicago, priority 2000, published 2002)

Experiments:
Notch-1 = test: Western blotting for Notch-1 in MOM-2b cells; type: cell-based; conditions: 100 nM
Protocol: Two cultures of MOM-2b cells (an aggressive melanoma cell line) were cultured in standard medium alone or in the presence of 100 nM of a gamma secretase inhibitor, which interferes with Notch signaling (Supont Compound E; Seiffaert et al., J. Biol. Chem., 275, 34086 (2000)). The cells then were lysed and assayed for the presence of Notch-1 by Western blotting.

MOM-2b cells = test: Invasion through MATRIOEL coated filters; type: cell-based; conditions: MOM-2b cells pretreated overnight with 100 nM
Protocol: In a second experiment, MOM-2b cells were pretreated overnight with 100 nM compound E or untreated culture medium and then analyzed for invasive behavior by culturing them on MATRIOEL™ coated filters, into which aggressive melanoma will invade. After 20 hours, cells that have not invaded through the filters were discarded and cells that had migrated into the top of the filters were stained, lysed, and then assayed for absorbance at 350 nm to quantitate the number of cells that had invaded through the filter.

Cytotoxicity = type: cell-based; conditions: concentrations <300 nM
PKC-alpha = PKC-alpha localization in keratinocytes; type: cell-based, human
Protocol: (§1) Portions of the epidermal equivalents were fixed in 10% neutral buffered formalin, embedded in paraffin and routinely stained with 1% hematoxylin and eosin. […] When using Lab Tek cultures, these slides were rinsed in PBS and fixed with ice-chilled acetone for 10 mins prior to addition of primary antibodies. Cryostat sections of skin also were fixed using ice-cold acetone. In all cases, a highly sensitive avidin biotin peroxidase procedure (Vectastain Kit, Vector Labs, Burlingame, Calif.) was used with a positive red reaction product obtained using […] as the chromagen.

Notch 1 = test: Western blot for Notch 1 in keratinocytes; type: cell-based, human; conditions: 6 hours and 24 hours after addition
Protocol: (§2) Whole cell lysates, or nuclear and cytoplasmic extracts, were prepared to detect different proteins as previously described (Chaturvedi et al., J. Biol. Chem., 274, 2358-67 (1999)). Briefly, keratinocytes were washed with ice cold phosphate buffered saline (PBS), and harvested by scraping the monolayers into 1 ml PBS, and pelleted in a […] microcentrifuge tube. The cell pellet was suspended in 400 μl of buffer A (10 mM HEPES, 10 mM KCl, 1 mM EDTA, 1 mM EGTA, 1 mM dithiothreitol, 0.5 mM phenylmethlysulfonyl fluoride, and 5 μg/ml leupeptin). After 20 min incubation on ice, 25 μl of 10% Nonidet P-40 was added and then centrifuged briefly. The supernatant represented the cytoplasmic extracts. The nuclear pellet was resuspended in 60-80 μl of buffer C (20 mM HEPES, 0.4 M NaCl, 1 mM EDTA, 1 mM EGTA, 1 mM dithiothreitol, 0.5 mM phenylmethylsulfonyl fluoride, and 5 μg/ml leupeptin) and incubated at 4° C. with shaking for 15 min. The nuclear debris was removed by centrifugation at 4° C.
(§3) For the whole cell lysate, cells were washed with cold PBS and incubated in CHAPS buffer on ice for 15 min. After centrifugation at 4° C., the supernatants were saved as whole cell lysate. The protein concentration of each sample was determined with Bio-Rad protein assay reagent. […]

NF-κB [1] = test: NF-κB luciferase assay in transfected keratinocytes; type: cell-based, human
Protocol: (§4) Keratinocyte cultures were initiated from discarded neonatal foreskins, in which epidermis was separated from dermis using dispase (Mukherjee et al, Chemical and Structural Approaches to Rational Drug Design (Weiner et al., eds.) CRC Press, pp. 237-61 (Boca Raton, 1994). Keratinocytes were induced to proliferating using a low calcium (0.07 mM), serum-free medium (KGM, Clonetics Corp., San Diego, Calif.). Keratinocytes were grown in 10 cm plastic petri dishes, and passaged at 60-70% confluency, and maintained in a humidified incubator at 37° C. with 5% CO2. Keratinocytes were also grown in 8-well Lab Tek Chambers as previously described (Mukherjee et al., supra). Keratinocytes were used between 2 and 4 passages. In some experiments, keratinocytes were pre-treated with KGM containing an elevated calcium ion concentration (i.e. 2 mM) for 24 hrs prior to addition of JAG-1 peptide, or other stimuli as indicated.
To perform the luciferase-based NF-κB assays, normal keratinocytes were seeded in 6-well plates as previously described (Qin et al., supra). At approximately 50% to 60% confluence, the cells were co-transfected with 0.8 μg of pNF-κB-LUC vector (CLONTECH Laboratories, Palo Alto, Calif.) containing a firefly luciferase gene with K enhancer and 0.2 μg of PRL-TK plasmid DNA which contains Renella Luciferase gene to normalize the transfection efficiency. The same amount of control vector in which the κ enhancer was removed from pNF-κB-LUC was also used to co-transfect the cells.
DNA was transfected into keratinocytes using Fu-Gene 6 Transfection Reagent (Roche Molecular Biochemicals) according to the manufacturer's protocol. After 36 hours of transfection, cells were treated with either TNF-α (10^3 U/ml; R&D Systems, Minneapolis, Minn.) or the indicated peptides.
The preparation of cell lysate and luciferase activity measurements were made with DUAL LUCIFERASE™ Reporter Assay System (Promega, Madison Wis.) according to the manufacturer's instructions. The sample was placed in a TD-20/20 luminometer (CLONTECH Laboratories) for detection of light intensity.

NF-κB [2] = test: Electromobility shift assay (EMSA) of keratinocyte nuclear extracts; type: cell-based, human; conditions: heterodimers p50 and p65 and p50/p50 homodimers
Protocol: EMSA were done as described previously (Qin et al., supra). 5 μg of nuclear proteins were incubated on ice with 1 μg of poly(dI-dC) (Amersham Pharmacia Biotech) in a buffer containing 10 mM HEPES, 60 mM KCl, 1 mM dithiothreitol, 1 mM EDTA, and 4% Ficoll for 10 min. The ^32P-labeled double strand NF-κB binding oligonucleotide (10^5 cpm) was then added to the reaction mixture for an additional 20 min on ice. The NF-κB oligonucleotide had the following sequence: SEQ ID NO:14 (5′-[…]-3′). For experiments involving supershift analysis, 2-4 μg of polyclonal antibodies against different subunits of NF-κB (Santa Cruz Biotech) were incubated with nuclear proteins for 30 min on ice prior to addition of ^32P-labeled NF-κB probe. All the reaction mixtures were resolved on 4% polyacrylamide gels.

IκBα = test: Western blot of keratinocyte cytoplasmic extracts for IκB proteins; type: cell-based, human
Protocol: as §2
For the whole cell lysate, cells were washed with cold PBS and incubated in CHAPS buffer on ice for 15 min. After centrifugation at 4° C., the supernatants were saved as whole cell lysate. The protein concentration of each sample was determined with Bio-Rad protein assay reagent. 30 μg of protein were loaded on 8-12.5% SDS-polyacrylamide gel, transferred to Immobilon-P (polyvinylidene difluoride) membrane and blocked in 5% powdered milk in TBST (50 mM Tris, pH 7.5, 150 mM NaCl, 0.01% Tween 20). The membrane was incubated with primary antibody overnight at 4° C. in 2.5% powdered milk in TBST and then was washed extensively with TBST, and incubated with 1:1500 anti-rabbit or mouse-HRP (Amersham Pharmacia Biotech). Proteins were visualized with the ECL detection kit (Amersham Pharmacia Biotech). The equivalent loading of proteins in each well was confirmed by Ponceau staining.

IKKα = IKKα immunocomplex kinase assay; type: cell-based, human; conditions: for kinase activity of IKKα: substrate GST-IκBα (1-54), after 30 and 60 minutes
Protocol: For immunoprecipitation 2 μg of anti-IKKα and anti-IKKβ were added to the whole cell lysate for 2 hours on ice. 30 μl of protein A-G sepharose beads were added and incubated at […] for 90 minutes. Beads were washed 3 times in wash buffer, and the beads were boiled with 2xSDS sample buffer. Kinase activity was performed using GST-IκBα as substrate (Hu et al., Science, 284, 316-20 (1999)).

p50 and p65 subunits = test: Western blot of keratinocyte nuclei for NF-κB subunits; type: cell-based, human; conditions: keratinocytes in 2 mM calcium; 30 minutes and 1 hour after addition
Protocol: as §2, §3

[3] = system: Jagged-1 and Notch receptors; test: Immunostaining of cultured keratinocyte monolayers for Jagged-1 and Notch receptors; type: cell-based, human
Protocol: as §4, §1

keratinocytes = test: Terminal differentiation of cultured keratinocyte monolayers; type: cell-based, human; conditions: for loricrin and involucrin immunostaining: 2 mM calcium keratinocyte cultures; for stratification of keratinocyte monolayer: 2 mM calcium, as early as 3 days following addition
Protocol: as §4, §1

epidermal equivalents = test: Living epidermal equivalent model system; type: cell-based, human; conditions: for terminal differentiation and cornification: continuously submerged cultures, 4 days later
Protocol: Reconstituted epidermis, known as epidermal equivalents were purchased from MatTek Corp., Ashland, Mass.
as §1
For these experiments a living epidermal equivalent model system was used, because it provided an opportunity to examine the individual components of the Notch pathway (i.e. Notch ligand and receptors) before, and after, induction of differentiation for keratinocytes maintained in a multi-layered or stratified configuration that closely resembles normal human skin. Epidermal equivalents consist of keratinocytes grown to produce a multi-layered structure that are initially prepared using submerged keratinocytes. Following this initial preparation, the cultures are exposed to an air-liquid interface in a moistened chamber for three days that can initiate the early stage of differentiation, designated as day 0. Under these conditions, approximately 5-7 layers are produced with a progressive flattening of the top level keratinocytes, which can include occasional cells with keratohyalin granules, and focal appearance of loricrin positive cells and corneocytes. When cultures arrived at day 0, they can either be re-submerged in medium or lifted-up and maintained on a support to create an air-liquid interface within a tissue culture well. After lifting of the cultures, the multi-layered keratinocytes are exposed to the air, with the subjacent membrane being moistened and fed only from the underlying medium within the well. Lifting the cultures at day 0, triggers the terminal differentiation process, which typically is completed within about 5 to about 7 days.

[4] = re-submerged day 0 cultures, observed on day 5

C[C@H](NC(=O)Cc1cc(F)cc(F)c1)C(=O)N[C@H]1N=C(c2ccccc2)c2ccccc2N(C)C1=O [compound E]
activation of Notch-1 (Notch-1): completely blocked | OD350 (cells invaded through the filter) (MOM-2b cells; after 20 hours): 0.378 | inhibition of aggressive behavior in melanoma cells (MOM-2b cells; versus control culture): 75% | cytotoxicity (Cytotoxicity): did not exhibit cytotoxicity

JAG-1: synthetic peptide with Notch agonist activity corresponding to Jagged-1 residues 188-204 (SEQ ID NO:11), part of the DSL region (CDDYYYGFGCNKFCRPR; JAG-1 Notch ligand)
PKC-alpha localization (PKC-alpha; epidermal equivalents, upper layers of differentiated keratinocytes): plasma membrane localization for PKC-alpha | PKC-alpha translocation (PKC activation) (PKC-alpha; keratinocyte monolayers): induced translocation of PKC-alpha from the cytoplasm to the plasma membrane | Notch 1 levels (Notch 1): decreased to barely detectable levels | NF-κB activation (luciferase) (NF-κB [1]; high calcium (2 mM) medium): did trigger NF-κB activation | NF-κB activation (luciferase) (NF-κB [1]; low calcium (0.07 mM) medium): not low calcium conditions | NF-κB transcriptional activity (binding to NF-κB probe) (NF-κB [2]): can activate NF-κB transcriptional activity | relatively low constitutive level of IκBα (IκBα; 7-minute to 6-hour time points): slightly reduced | cytoplasmic IκBα level (most prominent inhibitory protein) (IκBα; after 24 hours): no consistent decline | relatively low constitutive level of IκBα (IκBα; after 24 hours): became undetectable | amount of IKKα present (IKKα; immediately following stimulation): not accompanied by any significant change | kinase activity of IKKα (IKKα): did activate | intranuclear levels of p50 and p65 subunits (p50 and p65 subunits): markedly enhanced intranuclear levels | Notch-1 cellular localization ([3]; 24 hours after stimulation): re-distributed to the cytoplasm | Notch 3 immunolocalization ([3]; after addition of peptide): disappearance of both membrane and cytosolic Notch 3 | Notch 4 immunolocalization ([3]; after peptide stimulation): loss of membrane and cytosolic Notch 4 | Jagged-1 cellular localization ([3]; keratinocytes in 2 mM calcium, twenty-four hours after addition): loss of this plasma membrane staining | loricrin and involucrin immunostaining (keratinocytes): strong induction | stratification of keratinocyte monolayer (keratinocytes): began piling-up to form 3-dimensional stratified clusters | terminal differentiation and cornification (epidermal equivalents; 50 μM added on day 0): triggered terminal differentiation and cornification | apoptosis in submerged epidermal equivalent (epidermal equivalents; [4]): reduced the apoptotic process | loricrin expression in submerged epidermal equivalent (epidermal equivalents; [4]): diffuse loricrin expression | stratum corneum formation in submerged epidermal equivalent (epidermal equivalents; [4]): thick stratum corneum layer

R-JAG: second peptide with agonist activity (SEQ ID NO:12) derived from the same region of Jagged-1, with specific amino acid changes (CDDYYYGFGCNKFGRPRDD; r-JAG1 Notch ligand)
kinase activity of IKKα (IKKα): did activate | loricrin and involucrin immunostaining (keratinocytes): strong induction | stratification of keratinocyte monolayer (keratinocytes): began piling-up to form 3-dimensional stratified clusters | terminal differentiation and cornification (epidermal equivalents; 40 μM added on day 0): triggered terminal differentiation and cornification

SC-JAG: scrambled control peptide without agonist activity (SEQ ID NO:13) (RCGPDCFDNYGRYKYCF; Scrambled JAG peptide) [reference compound]
kinase activity of IKKα (IKKα): little effect | terminal differentiation and cornification (epidermal equivalents; 40 μM added on day 0): not

TNF-α [reference compound]
NF-κB activation (luciferase) (NF-κB [1]; high calcium (2 mM) medium): positive control for NF-κB activation | NF-κB activation (luciferase) (NF-κB [1]; low calcium (0.07 mM) medium): positive control for NF-κB activation | kinase activity of IKKα (IKKα): little effect
